Data as given in publication PMC11798738, “Targeting ASK1 by CS17919 alleviates kidney‐ and liver‐related diseases in murine models” (Animal Models and Experimental Medicine, 2024).
“Also recorded” adds a separate entry of the source. Like-named read-outs stand apart in the source and are kept apart here. Marks after values point to notes of the source that are not given here.

Tests used:
L02 cells = assay: Cell protection in PA-stimulated L02 cells (Cell Titer-Glo viability); format: cell-based, human; conditions: 50 μmol/L PA, 72 h
Description: L02 cells were cultured in DMEM medium (Gibco, 11 965 092, Carlsbad, CA, USA) supplemented with 20% FBS and 1× penicillin–streptomycin. L02 cells were inoculated in two 96‐well plates at 1E4 cells/well (200 μL). The following day, the cells were stimulated with 50 μmol/L PA (dissolved in ethanol to make a 200× stock solution and then added to the medium) and simultaneously incubated with different concentrations of CS17919 and GS‐4997 (CS17919 and GS‐4997 stock solutions were added to the well plates to reach a final concentration of 10–0.3 μmol/L). After 72 h of incubation, the original medium was removed, followed by the addition of 100 μL of new DMEM medium and 60 μL of Cell Titer‐Glo reagent per well. The cells were incubated for 5 min in the dark, and then transferred to a black permeable plate for detection using an enzyme plate reader (Tecan spark, Grödig, Austria).

MRC‐5 = assay: MTS cytotoxicity assay, MRC-5; format: cell-based, human; conditions: 72 h
Description: (§1) Human embryonic kidney cells (HEK‐293A), human hepatocellular carcinoma cells (HUH7), human embryonic liver diploid cells (CCC‐HEL‐1) and human embryonic lung cells (MRC‐5) were selected for the cytotoxicity study of both drugs, using the MTS assay protocol. Cells were cultured at 37°C with 5% CO2 using an appropriate medium. […] After 72 h of incubation, 30 μL of MTS solution was added to each well, and the cells were then incubated for 2–4 h in the dark. The absorbance value of each well at 490 nm was measured using an enzymatic plate reader and the IC50 for each drug and each cell line was calculated. Cell viability and cytoxicity experiments were repeated three times.

CCC‐HEL‐1 = assay: MTS cytotoxicity assay, CCC-HEL-1; format: cell-based, human; conditions: 72 h
Description: as §1

UUO mouse model = UUO mouse model of kidney injury and fibrosis; format: in vivo, C57BL/6J mice; conditions: CS17919 10 and 60 mg/kg, GS-4997 30 mg/kg, gavage twice daily, 11 days
Description: 55 C57BL/6J mice, male, 6–8 weeks old were purchased from Chengdu Pharmachem Biotechnology Co. (Chengdu, China) and randomly divided into 5 groups according to their body weight: Sham (n = 10), Model (n = 15), CS17919L (10 mg/kg, n = 10), CS17919H (60 mg/kg, n = 10), and GS‐4997 (30 mg/kg, n = 10). The mice were anesthetized and fixed on the operating table, and the abdominal cortex and muscles were cut in the middle of the right side of the abdomen, and the ureter was searched for along the renal hilum. The ureter was separated using a glass split‐needle and ligated at the opening of the renal pelvis and the upper 1/3 of the ureter, and the ureter was cut between the two ligatures. Finally, the muscle and skin were closed with consecutive sutures, and animals were kept under observation until they awoke. Both the Sham and the Model group received solvent (0.2% CMC‐Na + 0.1% Tween‐80) orally twice daily. CS17919 and GS‐4997 were administered by gavage twice daily at the corresponding doses for 11 days. All treatments were started one day before surgical operation. All mice were sacrificed one day after administration with overnight fasting. Blood was collected, and serum was isolated for the analysis of urea nitrogen and creatinine. The kidney of each mouse was removed, weighed and fixed in 10% formalin solution for pathological study.
Masson staining was applied to determine kidney fibrosis in the UUO model. Thin 4 μm paraffin sections of each sample were used in this study, which followed the standard procedure. The sections were stained with Hematoxylin staining solution for 5–10 min and then washed, followed by staining with Ponceau S‐acid fuchsin stain for around 5–10 min. The sections were treated with 1% phosphomolybdic acid and Aniline Blue solution, and finally dehydrated stepwise in alcohol and sealed. VIS7.0 software was used to analyze the area of kidney fibrosis and the percentage of the fibrosis area in the scanning area was calculated.

NASH [1] = test system: NASH; design: method as in PMID 32147362; conditions: cited from earlier work
diabetic kidney disease = test system: diabetic kidney disease; design: method as in PMID 25531162; conditions: cited from earlier work
[2] = test system: 5/6 nephrectomy (5/6 Nx) rat model; design: method as in PMID 35919527; conditions: GS-4997 alone; cited from earlier work
NASH mouse model [3] = assay: CCL4- and HFD-induced NASH mouse model; format: in vivo, C57BL/6J mice; conditions: CS17919 20 mg/kg
Description: 41 C57BL/6J mice, male, 6–8 weeks of age, were purchased from Chengdu Dossy Experimental Animal Co. (Chengdu, China), 9 of which were assigned in the control group and fed a chow diet. The other 32 mice were fed a HFD (D12429, Research diet, USA). After 8 weeks of feeding, these mice with HFD were subcutaneously injected with CCL4 (0.1 mL/kg) twice a week. These mice were then randomly subdivided into 4 groups according to serum ALT and AST at week 12: Model (n = 8), CS17919 (n = 8), CS27109 (n = 8), and Combination (n = 8). Both the control and model groups were given the solvent mentioned above, administered orally twice a day, while CS17919 was administered twice a day by gavage at a dose of 20 mg/kg and CS27109 was administered twice a day by gavage at a dose of 10 mg/kg for 4 weeks. The body weight of each mouse was measured every 3 days during the drug intervention. All animals were fasted overnight after the last drug administration and blood was collected to isolate serum for biochemical tests including AST, ALT, TG, TC, HDL‐c, and LDL‐c. The liver of each mouse was removed, the right lobe of which was fixed in 10% formalin solution for pathological study.
H&E staining was applied to determine scores for liver steatosis, ballooning and inflammation in the NASH model. Thin 4 μm paraffin sections of each sample were used to assess liver histology, following a standard protocol. Paraffin sections were deparaffinized and placed in Hematoxylin staining solution for 3–8 min before using tap water to elute excess Hematoxylin. Sections were stained in Eosin stain for about 1–3 min and rinsed with tap water. Finally, the slices were dehydrated and sealed. Score ranges were 0–3 for liver steatosis, 0–2 for ballooning and 0–12 for inflammation (which included scores of 0–3 for portal inflammation, 0–3 for lobular inflammation, 0–3 for piecemeal necrosis, and 0–3 for bridging necrosis).
Sirius Red staining was applied to determine liver fibrosis in the NASH model. Thin 4 μm paraffin sections of each sample were used in this study followed the standard procedure. Sections were first stained with Hematoxylin for 5–10 min, then washed and stained with Sirius Red stain about 15–30 min. Finally, the sections were rinsed and sealed. Image‐Pro Plus 6.0 was used for analyzing the area of liver fibrosis and the percentage of the fibrosis area in each section was calculated.

CYP 2B6 = CYP 2B6 (Homo sapiens, UniProt P20813); assay: CYP inhibition in vitro; format: in vitro ADME
CYP 2C8 = CYP 2C8 (Homo sapiens, UniProt P10632); assay: CYP inhibition in vitro; format: in vitro ADME
CYP 2C9 = CYP 2C9 (Homo sapiens, UniProt P11712); assay: CYP inhibition in vitro; format: in vitro ADME
CYP 2C19 = CYP 2C19 (Homo sapiens, UniProt P33261); assay: CYP inhibition in vitro; format: in vitro ADME
CYP 2D6 = CYP 2D6 (Homo sapiens, UniProt P10635); assay: CYP inhibition in vitro; format: in vitro ADME
[4] = Metabolic stability in liver microsomes; format: in vitro ADME; conditions: Human
[5] = Metabolic stability in liver microsomes; format: in vitro ADME; conditions: Rat
[6] = Metabolic stability in liver microsomes; format: in vitro ADME; conditions: Mouse
CYP 1A2 = CYP 1A2 (Homo sapiens, UniProt P05177)
CYP3A4 [7] = molecular target: T1, CYP3A4 (Homo sapiens, UniProt P08684)
NASH mouse model [8] = assay: CCL4- and HFD-induced NASH mouse model; format: in vivo, C57BL/6J mice; conditions: data not shown; model group 5/9
CYP3A4 [9] = molecular target: T1, CYP3A4; assay: CYP inhibition in vitro; conditions: read-out: CYP3A4 (Midazolam) inhibition IC50; substrate Midazolam
UUO model = test system: UUO model; design: method as in PMID 37310976; conditions: cited from earlier work
DKD = test system: DKD; design: method as in PMID 30526503, PMID 26180085, PMID 30024858; conditions: cited from earlier work
NASH [10] = test system: NASH; design: method as in PMID 28218919, PMID 31996485; conditions: cited from earlier work
[11] = 4 weeks, CS27109 10 mg/kg twice a day
[12] = serum after 4 weeks, CS27109 10 mg/kg, gavage twice a day, mean ± SD

T1 sequence (P08684 whole entry): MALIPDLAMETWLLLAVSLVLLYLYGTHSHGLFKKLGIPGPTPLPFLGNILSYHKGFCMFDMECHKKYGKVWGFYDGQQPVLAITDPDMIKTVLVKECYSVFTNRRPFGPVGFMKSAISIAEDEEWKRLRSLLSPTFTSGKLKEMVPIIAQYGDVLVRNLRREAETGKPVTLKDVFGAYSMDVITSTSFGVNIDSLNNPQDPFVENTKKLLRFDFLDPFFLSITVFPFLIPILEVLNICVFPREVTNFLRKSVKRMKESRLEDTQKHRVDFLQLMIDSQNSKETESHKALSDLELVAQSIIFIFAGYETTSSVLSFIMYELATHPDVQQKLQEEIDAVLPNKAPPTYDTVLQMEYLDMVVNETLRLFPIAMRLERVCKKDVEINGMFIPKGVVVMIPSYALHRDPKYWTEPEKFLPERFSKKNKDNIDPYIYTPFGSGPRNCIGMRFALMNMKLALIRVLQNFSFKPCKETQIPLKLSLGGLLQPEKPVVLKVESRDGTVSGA
Chain of CYP 2C9 (P11712 whole entry): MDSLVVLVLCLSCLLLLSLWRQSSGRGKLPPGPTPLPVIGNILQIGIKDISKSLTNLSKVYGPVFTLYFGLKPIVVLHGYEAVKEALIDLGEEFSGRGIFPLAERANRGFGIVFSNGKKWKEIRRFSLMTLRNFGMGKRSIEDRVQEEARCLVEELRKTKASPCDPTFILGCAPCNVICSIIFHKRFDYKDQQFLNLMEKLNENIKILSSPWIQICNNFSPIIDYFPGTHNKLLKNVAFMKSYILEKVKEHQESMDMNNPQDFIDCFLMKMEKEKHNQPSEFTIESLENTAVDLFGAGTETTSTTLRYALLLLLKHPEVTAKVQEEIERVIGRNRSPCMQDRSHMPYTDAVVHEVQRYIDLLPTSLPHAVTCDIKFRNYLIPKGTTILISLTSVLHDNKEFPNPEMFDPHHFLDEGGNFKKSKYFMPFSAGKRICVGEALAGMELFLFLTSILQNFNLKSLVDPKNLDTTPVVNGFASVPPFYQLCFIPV
Chain of CYP 2D6 (P10635 whole entry): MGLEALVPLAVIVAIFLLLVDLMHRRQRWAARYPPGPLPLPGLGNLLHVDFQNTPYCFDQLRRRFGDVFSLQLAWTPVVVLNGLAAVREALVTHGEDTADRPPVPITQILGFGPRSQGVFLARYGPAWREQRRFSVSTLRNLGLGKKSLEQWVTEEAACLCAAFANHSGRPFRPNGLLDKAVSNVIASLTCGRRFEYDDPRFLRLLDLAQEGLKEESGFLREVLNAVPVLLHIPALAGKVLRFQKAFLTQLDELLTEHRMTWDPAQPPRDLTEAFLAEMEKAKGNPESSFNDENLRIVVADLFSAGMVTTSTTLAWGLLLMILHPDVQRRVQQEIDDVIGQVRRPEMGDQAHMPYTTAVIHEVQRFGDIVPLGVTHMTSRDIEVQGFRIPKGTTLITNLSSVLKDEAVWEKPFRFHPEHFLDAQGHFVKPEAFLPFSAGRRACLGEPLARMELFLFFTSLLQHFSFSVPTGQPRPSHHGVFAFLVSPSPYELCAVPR
Chain of CYP 2B6 (P20813 whole entry): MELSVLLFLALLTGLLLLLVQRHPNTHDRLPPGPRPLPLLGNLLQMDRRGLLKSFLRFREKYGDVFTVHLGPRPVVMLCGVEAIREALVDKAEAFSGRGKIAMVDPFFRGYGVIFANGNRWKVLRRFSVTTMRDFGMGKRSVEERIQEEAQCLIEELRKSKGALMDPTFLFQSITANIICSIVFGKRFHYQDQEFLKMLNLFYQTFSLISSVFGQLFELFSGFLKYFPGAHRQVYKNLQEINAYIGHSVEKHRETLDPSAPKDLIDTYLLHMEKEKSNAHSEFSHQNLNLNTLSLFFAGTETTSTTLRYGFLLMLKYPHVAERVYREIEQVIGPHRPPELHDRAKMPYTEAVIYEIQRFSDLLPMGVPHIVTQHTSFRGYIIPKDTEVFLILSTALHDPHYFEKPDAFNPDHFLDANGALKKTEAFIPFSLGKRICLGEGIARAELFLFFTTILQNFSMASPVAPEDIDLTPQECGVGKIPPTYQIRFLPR
Chain of CYP 1A2 (P05177 whole entry): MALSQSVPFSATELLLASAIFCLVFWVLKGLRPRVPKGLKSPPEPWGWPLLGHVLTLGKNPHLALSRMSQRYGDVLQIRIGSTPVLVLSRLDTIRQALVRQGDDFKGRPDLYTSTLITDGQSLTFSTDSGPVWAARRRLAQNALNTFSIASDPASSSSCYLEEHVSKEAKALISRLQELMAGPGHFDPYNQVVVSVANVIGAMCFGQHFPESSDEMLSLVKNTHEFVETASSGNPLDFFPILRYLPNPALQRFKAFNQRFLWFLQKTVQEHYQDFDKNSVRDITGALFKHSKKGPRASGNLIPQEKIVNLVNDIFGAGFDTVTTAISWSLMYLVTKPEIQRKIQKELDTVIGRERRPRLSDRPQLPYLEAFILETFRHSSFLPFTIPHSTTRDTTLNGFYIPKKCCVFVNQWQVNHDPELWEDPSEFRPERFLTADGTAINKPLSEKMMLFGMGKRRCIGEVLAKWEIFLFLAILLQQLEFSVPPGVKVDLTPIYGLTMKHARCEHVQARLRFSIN
Chain of CYP 2C8 (P10632 whole entry): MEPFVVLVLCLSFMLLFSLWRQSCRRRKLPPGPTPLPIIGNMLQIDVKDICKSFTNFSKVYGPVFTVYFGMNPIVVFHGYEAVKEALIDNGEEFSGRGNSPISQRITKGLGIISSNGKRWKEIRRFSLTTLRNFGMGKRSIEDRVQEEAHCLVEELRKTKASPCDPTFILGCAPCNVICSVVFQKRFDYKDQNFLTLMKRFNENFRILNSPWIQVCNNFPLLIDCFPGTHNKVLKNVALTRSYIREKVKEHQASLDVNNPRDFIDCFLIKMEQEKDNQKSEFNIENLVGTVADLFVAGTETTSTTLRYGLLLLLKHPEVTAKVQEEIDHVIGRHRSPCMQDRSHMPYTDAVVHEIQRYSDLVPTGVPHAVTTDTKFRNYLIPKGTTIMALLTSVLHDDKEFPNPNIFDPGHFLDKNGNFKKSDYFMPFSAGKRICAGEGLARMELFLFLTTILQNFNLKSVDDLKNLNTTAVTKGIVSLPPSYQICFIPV
Chain of CYP 2C19 (P33261 whole entry): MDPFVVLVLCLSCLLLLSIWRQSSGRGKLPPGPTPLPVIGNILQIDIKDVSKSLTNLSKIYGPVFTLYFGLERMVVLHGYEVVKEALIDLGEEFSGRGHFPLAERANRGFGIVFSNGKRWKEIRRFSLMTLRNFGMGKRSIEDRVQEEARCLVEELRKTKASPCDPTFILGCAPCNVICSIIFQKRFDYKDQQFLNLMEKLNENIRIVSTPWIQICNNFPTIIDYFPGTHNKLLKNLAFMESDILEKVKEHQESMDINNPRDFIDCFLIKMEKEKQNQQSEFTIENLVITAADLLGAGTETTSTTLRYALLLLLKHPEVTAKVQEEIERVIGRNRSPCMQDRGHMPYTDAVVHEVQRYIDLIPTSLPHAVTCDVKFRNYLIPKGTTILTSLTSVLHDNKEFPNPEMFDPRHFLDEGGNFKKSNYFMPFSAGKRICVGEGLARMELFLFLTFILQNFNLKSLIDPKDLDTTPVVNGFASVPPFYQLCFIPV

Cc1cc(F)c(C(=O)Nc2cccc(-c3nncn3C(C)C)n2)cc1-n1cnc(C2CC2)c1 [GS‐4997, Selonsertib, reference compound]
Cell protection (cell viability normalized to PA-treated cells) (L02 cells; 0.32–10 μmol/L drug): only protected against cell death at lower doses | Cell viability at high drug doses (L02 cells; 5 and 10 μmol/L drug): reduced cell viability in a dose‐dependent manner | Cytotoxicity (cell viability) (MRC‐5): reduced cell viability at higher doses; also recorded: high‐dose cytotoxicity | Cytotoxicity (cell viability) (CCC‐HEL‐1): reduced cell viability at higher doses | Area of kidney fibrosis (Masson staining) (UUO mouse model): tendency to reduce | Serum creatinine vs model group (UUO mouse model): non‐significant tendency to decrease | Serum urea nitrogen vs model group (UUO mouse model): significantly reduced | Outcome of phase III NASH trial (NASH [1]): failed | Outcome of DKD clinical trial (diabetic kidney disease): did not meet its primary endpoint | CKD-related characteristics and kidney function [2]: barely improved CKD‐related characteristics, but preserved kidney function

N#Cc1nn(-c2cc(Br)c(Oc3n[nH]c(=O)c4ccccc34)c(Br)c2)c(=O)[nH]c1=O [CS27109]
Liver fibrosis area (Sirius Red staining) (NASH mouse model [3]; [11]): improving all pathologic features of NASH | Liver inflammation score (H&E) (NASH mouse model [3]; [11]): improving all pathologic features of NASH | Liver steatosis and ballooning scores (H&E) (NASH mouse model [3]; [11]): improving all pathologic features of NASH | ALT (NASH mouse model [3]; [12]): 68.7 ± 18.8^c U/L | AST (NASH mouse model [3]; [12]): 113.0 ± 36.2^a U/L | HDL‐C (NASH mouse model [3]; [12]): 0.665 ± 0.284 mmol/L | LDL‐C (NASH mouse model [3]; [12]): 0.040 ± 0.026^b mmol/L | TC (NASH mouse model [3]; [12]): 0.785 ± 0.277 mmol/L | TG (NASH mouse model [3]; [12]): 0.329 ± 0.341 mmol/L | IC50 (CYP 2B6): > 10 µM | IC50 (CYP 2C8): > 10 µM | IC50 (CYP 2C9): 5.1 µM | IC50 (CYP 2C19): > 10 µM | IC50 (CYP 2D6): > 10 µM | Clint in liver microsomes [4]: 0.83 mL/min/kg | T1/2 in liver microsomes [4]: >120 min | Clint in liver microsomes [5]: 4.24 mL/min/kg | T1/2 in liver microsomes [5]: >120 min | Clint in liver microsomes [6]: 7.72 mL/min/kg | T1/2 in liver microsomes [6]: >120 min | IC50 (CYP 1A2): > 10 µM | IC50 (CYP3A4 [7]): > 10 µM | Occurrence of hepatocellular carcinoma (mice affected/group) (NASH mouse model [8]): 2/8 | IC50 (CYP3A4 [9]): > 10 µM

O=C(Nc1cccc(-c2nncn2C2CC2)c1)c1cc(-n2cnc(C3CC3)c2)ccn1 [GS‐444217]
Kidney fibrosis (UUO model): attenuate kidney fibrosis | Glomerular sclerosis progression (DKD): halt the progression of glomerular sclerosis | NASH symptoms (NASH [10]): significantly ameliorated NASH symptoms
